From patent US20220289724A1, “KIF18A INHIBITORS” (AMGEN INC., priority 2019, published 2022)

Molecular target: T1, Recombinant human KIF18A (1-467 His-tagged) protein (Homo sapiens, UniProt Q8NI77)
T1 construct: Recombinant human KIF18A (1-467 His-tagged) protein; His; made in house
Assay: KIF18A Enzyme Assay: microtubule-stimulated ATPase activity assay (ADP-Glo)
Type: biochemical
Details: KIF18A protein 30 nM, 30 μg/mL pig microtubules, ATP at Km 75 μM, ADP-Glo luminescence, RT
Source text: KIF18A Enzyme Assay: Microtubule-stimulated ATPase activity assay is used to measure KIF18A enzyme activity after treatment with compound. Compounds were 2-fold serially diluted in DMSO (Sigma Inc) over 22-point concentration range. Recombinant human KIF18A (1-467 His-tagged) protein was expressed using a baculovirus system and purified by affinity chromatography by Amgen Inc. Concentrations of KIF18A protein, microtubules (MT), and ATP in the reaction were optimized for standardized homogenous enzyme assay using ADP-Glorm Kinase/ATPase Assay Kit (Promega Inc). The assay measures ADP formed from the ATPase reaction. […] Concentration-response curve-fitting and IC50 determination was performed using Genedata Screener Software (Standard 15.0.1, Genedata Inc) with a four-parameter logistic regression fit model.
Table A provides data for compounds exemplified in the present application and priority document thereof, as representative compounds of the present invention, as follows: chemical name (as named by either ACD software or ChemDraw (Professional 15.0)) and biological data (IC50 in μM). Ex. […] refers to Example No.

T1 sequence (Q8NI77 1-467): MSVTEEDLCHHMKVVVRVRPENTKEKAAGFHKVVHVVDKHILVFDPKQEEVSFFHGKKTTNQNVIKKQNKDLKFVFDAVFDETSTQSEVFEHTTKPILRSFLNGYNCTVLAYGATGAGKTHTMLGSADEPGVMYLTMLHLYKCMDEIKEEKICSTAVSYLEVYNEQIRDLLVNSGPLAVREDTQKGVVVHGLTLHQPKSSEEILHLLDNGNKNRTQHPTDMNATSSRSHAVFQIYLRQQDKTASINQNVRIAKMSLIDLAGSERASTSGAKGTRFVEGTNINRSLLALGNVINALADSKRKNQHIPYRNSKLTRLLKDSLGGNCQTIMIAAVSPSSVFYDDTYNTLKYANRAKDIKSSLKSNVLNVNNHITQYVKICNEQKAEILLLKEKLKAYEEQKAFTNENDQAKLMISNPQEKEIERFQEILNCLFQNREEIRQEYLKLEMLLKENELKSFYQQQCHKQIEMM
T1 sequence (P02550 whole entry partner): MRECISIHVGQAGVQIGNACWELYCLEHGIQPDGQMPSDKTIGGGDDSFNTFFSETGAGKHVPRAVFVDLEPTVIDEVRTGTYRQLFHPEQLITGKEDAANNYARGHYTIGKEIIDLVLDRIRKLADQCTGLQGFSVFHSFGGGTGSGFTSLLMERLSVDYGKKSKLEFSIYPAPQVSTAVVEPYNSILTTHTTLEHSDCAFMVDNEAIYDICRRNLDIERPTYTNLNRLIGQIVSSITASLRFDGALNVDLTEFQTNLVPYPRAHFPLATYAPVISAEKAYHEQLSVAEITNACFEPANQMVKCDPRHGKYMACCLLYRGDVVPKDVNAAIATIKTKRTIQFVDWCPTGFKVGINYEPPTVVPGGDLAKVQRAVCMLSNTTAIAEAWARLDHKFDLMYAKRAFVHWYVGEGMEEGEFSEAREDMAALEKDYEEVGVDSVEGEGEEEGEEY
T1 sequence (P02554 whole entry partner): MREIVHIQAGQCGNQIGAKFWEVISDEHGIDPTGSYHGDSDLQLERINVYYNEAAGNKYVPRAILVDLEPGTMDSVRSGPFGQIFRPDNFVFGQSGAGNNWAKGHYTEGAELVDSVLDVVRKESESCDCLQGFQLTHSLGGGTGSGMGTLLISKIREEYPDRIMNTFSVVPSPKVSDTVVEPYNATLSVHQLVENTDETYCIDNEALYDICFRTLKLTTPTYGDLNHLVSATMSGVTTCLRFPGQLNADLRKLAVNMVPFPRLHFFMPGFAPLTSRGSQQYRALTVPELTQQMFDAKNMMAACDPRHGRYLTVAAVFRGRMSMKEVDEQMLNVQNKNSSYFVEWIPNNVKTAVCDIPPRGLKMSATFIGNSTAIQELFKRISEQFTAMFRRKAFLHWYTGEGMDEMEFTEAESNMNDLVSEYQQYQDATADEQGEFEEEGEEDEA

C[C@@H](CO)S(=O)(=O)Nc1ccc(C(=O)Nc2cccc(S(=O)(=O)NC(C)(C)C)c2)c(N2CCC3(CC2)CC3)c1 (single isomer, unassigned) [Example 105-1] and C[C@H](CO)S(=O)(=O)Nc1ccc(C(=O)Nc2cccc(S(=O)(=O)NC(C)(C)C)c2)c(N2CCC3(CC2)CC3)c1 (single isomer, unassigned) [Example 105-2] are within 1.5-fold of each other in IC50: 0.042 µM for the first, 0.057 µM for the second.

Going from CC(C)(C)NS(=O)(=O)c1cccc(NC(=O)c2ccc([C@@](C)(O)CO)cc2N2CCC3(CC2)CC3)c1 (single isomer, unassigned) [Example 108-1] to CC(C)(C)NS(=O)(=O)c1cccc(NC(=O)c2ccc([C@](C)(O)CO)cc2N2CCC3(CC2)CC3)c1 (single isomer, unassigned) [Example 108-2], the IC50 rises from 0.092 µM to 0.141 µM (1.5-fold). The first is the more potent here.

N=[S@](=O)(c1cccc(NC(=O)c2ccc(NS(=O)(=O)CCO)cc2N2CCC3(CC2)CC3)c1)N1CCC1 (single isomer, unassigned) [Example 112-1] and N=[S@@](=O)(c1cccc(NC(=O)c2ccc(NS(=O)(=O)CCO)cc2N2CCC3(CC2)CC3)c1)N1CCC1 (single isomer, unassigned) [Example 112-2] are within 1.5-fold of each other in IC50: 0.142 µM for the first, 0.16 µM for the second.

Compared with CC(C)(C)NS(=O)(=O)c1cccc(NC(=O)c2ccc(S(=O)(=O)C3(C)COC3)cc2N2CCC3(CC2)CC3)c1 [Example 100, N-(3-(N-(tert-Butyl)sulfamoyl)phenyl)-4-((3-methyloxetan-3-yl)sulfonyl)-2-(6-azaspiro[2.5]octan-6-yl)benzamide], CC(C)(C)NS(=O)(=O)c1cccc(NC(=O)c2ccc(S(C)(=O)=O)cc2N2CCC3(CC2)CC3)c1 [Example 100-1, N-(3-(N-(tert-butyl)sulfamoyl)phenyl)-4-(methylsulfonyl)-2-(6-azaspiro[2.5]octan-6-yl)benzamide] is 2.8-fold lower in IC50: 0.173 µM for the first, 0.061 µM for the second. The second is the more potent here.

Going from CC(C)c1cccc(NC(=O)c2ccc(S(C)(=O)=O)cc2N2CCC3(CC2)CC3)c1 [Example 100-2, N-(3-isopropylphenyl)-4-(methylsulfonyl)-2-(6-azaspiro[2.5]octan-6-yl)benzamide] to CC(C)(C)c1cccc(NC(=O)c2ccc(S(C)(=O)=O)cc2N2CCC3(CC2)CC3)c1 [Example 100-4, N-(3-(tert-butyl)phenyl)-4-(methylsulfonyl)-2-(6-azaspiro[2.5]octan-6-yl)benzamide], the IC50 rises from 0.094 µM to 0.362 µM (3.9-fold).

Going from CS(=O)(=O)c1ccc(C(=O)Nc2cccc(C3CC3)c2)c(N2CCC3(CC2)CC3)c1 [Example 100-3, N-(3-cyclopropylphenyl)-4-(methylsulfonyl)-2-(6-azaspiro[2.5]octan-6-yl)benzamide] to CS(=O)(=O)c1ccc(C(=O)Nc2cccc(N3CCOCC3)c2)c(N2CCC3(CC2)CC3)c1 [Example 100-10, 4-(methylsulfonyl)-N-(3-morpholinophenyl)-2-(6-azaspiro[2.5]octan-6-yl)benzamide], the IC50 rises from 0.187 µM to 0.862 µM (4.6-fold). The first is the more potent here.

Going from CS(=O)(=O)c1ccc(C(=O)Nc2cccc3cccnc23)c(N2CCC3(CC2)CC3)c1 [Example 100-5, 4-(methylsulfonyl)-N-(quinolin-8-yl)-2-(6-azaspiro[2.5]octan-6-yl)benzamide] to Cc1ccnc2c(NC(=O)c3ccc(S(C)(=O)=O)cc3N3CCC4(CC3)CC4)cccc12 [Example 100-6, N-(4-methylquinolin-8-yl)-4-(methylsulfonyl)-2-(6-azaspiro[2.5]octan-6-yl)benzamide], the IC50 falls from 0.246 µM to 0.061 µM (4-fold).

Compared with CS(=O)(=O)c1ccc(C(=O)Nc2cccc3c2OCCC3)c(N2CCC3(CC2)CC3)c1 [Example 100-7, N-(chroman-8-yl)-4-(methylsulfonyl)-2-(6-azaspiro[2.5]octan-6-yl)benzamide], CS(=O)(=O)c1ccc(C(=O)Nc2cccc3ccoc23)c(N2CCC3(CC2)CC3)c1 [Example 100-8, N-(benzofuran-7-yl)-4-(methylsulfonyl)-2-(6-azaspiro[2.5]octan-6-yl)benzamide] is 4.4-fold higher in IC50: 0.045 µM for the first, 0.2 µM for the second.

Going from CS(=O)(=O)c1ccc(C(=O)Nc2cccc3ccsc23)c(N2CCC3(CC2)CC3)c1 [Example 100-9, N-(benzo[b]thiophen-7-yl)-4-(methylsulfonyl)-2-(6-azaspiro[2.5]octan-6-yl)benzamide] to CC(C)(CO)Nc1cccc(NC(=O)c2ccc(S(=O)(=O)NC3(C)COC3)cc2N2CCC3(CC2)CC3)c1F [Example 101-1, N-(2-fluoro-3-((1-hydroxy-2-methylpropan-2-yl)amino)phenyl)-4-(N-(3-methyloxetan-3-yl)sulfamoyl)-2-(6-azaspiro[2.5]octan-6-yl)benzamide], the IC50 falls from 0.63 µM to 0.066 µM (9.5-fold).

CC(C)(C)NS(=O)(=O)c1cccc(NC(=O)c2ccc(CS(C)(=O)=O)cc2N2CCC3(CC2)CC3)c1 [Example 100-11, N-(3-(N-(tert-butyl)sulfamoyl)phenyl)-4-((methylsulfonyl)methyl)-2-(6-azaspiro[2.5]octan-6-yl)benzamide] and CC(C)(C)NS(=O)(=O)c1cccc(NC(=O)c2ccc(CS(=O)(=O)CCO)cc2N2CCC3(CC2)CC3)c1 [Example 100-12, N-(3-(N-(tert-butyl)sulfamoyl)phenyl)-4-(((2-hydroxyethyl)sulfonyl)methyl)-2-(6-azaspiro[2.5]octan-6-yl)benzamide] are within 1.5-fold of each other in IC50: 0.051 µM for the first, 0.075 µM for the second.

CC(C)(C)NS(=O)(=O)c1cccc(NC(=O)c2ccc(S(=O)(=O)NC(C)(C)C)cc2N2CCC3(CC2)CC3)c1 [Example 100-13, 4-(N-(tert-butyl)sulfamoyl)-N-(3-(N-(tert-butyl)sulfamoyl)phenyl)-2-(6-azaspiro[2.5]octan-6-yl)benzamide] and CC(C)(C)NS(=O)(=O)c1cccc(NC(=O)c2ccc(NS(=O)(=O)C(C)(C)C)cc2N2CCC3(CC2)CC3)c1 [Example 102-5, N-(3-(N-(tert-butyl)sulfamoyl)phenyl)-4-((1,1-dimethylethyl)sulfonamido)-2-(6-azaspiro[2.5]octan-6-yl)benzamide] are within 1.5-fold of each other in IC50: 0.076 µM for the first, 0.063 µM for the second.

CC(C)(C)NS(=O)(=O)c1cccc(NC(=O)c2ccc(C3(C)COC3)cc2N2CCC3(CC2)CC3)c1 [Example 100-14, N-(3-(N-(tert-butyl)sulfamoyl)phenyl)-4-(3-methyloxetan-3-yl)-2-(6-azaspiro[2.5]octan-6-yl)benzamide] and CC(C)(C)NS(=O)(=O)c1cccc(NC(=O)c2ccc(C3(O)COC3)cc2N2CCC3(CC2)CC3)c1 [Example 100-15, N-(3-(N-(tert-butyl)sulfamoyl)phenyl)-4-(3-hydroxyoxetan-3-yl)-2-(6-azaspiro[2.5]octan-6-yl)benzamide] are within 1.5-fold of each other in IC50: 0.13 µM for the first, 0.088 µM for the second.

Going from CC(C)(CO)Nc1cccc(NC(=O)c2ccc(NS(=O)(=O)C3(C)CC3)cc2N2CCC3(CC2)CC3)c1F [Example 101-2, N-(2-fluoro-3-((1-hydroxy-2-methylpropan-2-yl)amino)phenyl)-4-((1-methylcyclopropane)-1-sulfonamido)-2-(6-azaspiro[2.5]octan-6-yl)benzamide] to CC(C)(CO)Nc1cccc(NC(=O)c2ccc(NS(=O)(=O)C3(C)CC3)cc2N2CCC3(CC2)CC3)c1 [Example 101-3, N-(3-((1-hydroxy-2-methylpropan-2-yl)amino)phenyl)-4-((1-methylcyclopropane)-1-sulfonamido)-2-(6-azaspiro[2.5]octan-6-yl)benzamide], the IC50 falls from 0.298 µM to 0.115 µM (2.6-fold). The second is the more potent here.

First: CC(C)(C)NS(=O)(=O)c1cccc(NC(=O)c2ccc(NS(=O)(=O)C3(C)CC3)cc2N2CCC3(CC2)CC3)c1 [Example 102, N-(3-(N-(tert-Butyl)sulfamoyl)phenyl)-4-((1-methylcyclopropane)-1-sulfonamido)-2-(6-azaspiro[2.5]octan-6-yl)benzamide]
Second: CC(C)(C)NS(=O)(=O)c1cccc(NC(=O)c2ccc(NS(C)(=O)=O)cc2N2CCC3(CC2)CC3)c1 [Example 102-1, N-(3-(N-(tert-butyl)sulfamoyl)phenyl)-4-(methylsulfonamido)-2-(6-azaspiro[2.5]octan-6-yl)benzamide]
The IC50 of the first is 2.3-fold higher: 0.061 µM for the first, 0.027 µM for the second.

CCS(=O)(=O)Nc1ccc(C(=O)Nc2cccc(S(=O)(=O)NC(C)(C)C)c2)c(N2CCC3(CC2)CC3)c1 [Example 102-2, N-(3-(N-(tert-butyl)sulfamoyl)phenyl)-4-(ethylsulfonamido)-2-(6-azaspiro[2.5]octan-6-yl)benzamide] and CC(C)S(=O)(=O)Nc1ccc(C(=O)Nc2cccc(S(=O)(=O)NC(C)(C)C)c2)c(N2CCC3(CC2)CC3)c1 [Example 102-3, N-(3-(N-(tert-butyl)sulfamoyl)phenyl)-4-((1-methylethyl)sulfonamido)-2-(6-azaspiro[2.5]octan-6-yl)benzamide] are within 1.5-fold of each other in IC50: 0.034 µM for the first, 0.026 µM for the second.

First: CC(C)(C)NS(=O)(=O)c1cccc(NC(=O)c2ccc(NS(=O)(=O)C3CC3)cc2N2CCC3(CC2)CC3)c1 [Example 102-4, N-(3-(N-(tert-butyl)sulfamoyl)phenyl)-4-(cyclopropanesulfonamido)-2-(6-azaspiro[2.5]octan-6-yl)benzamide]
Second: CC(C)(C)NS(=O)(=O)c1cccc(NC(=O)c2ccc(N3CCCS3(=O)=O)cc2N2CCC3(CC2)CC3)c1 [Example 102-6, N-(3-(N-(tert-butyl)sulfamoyl)phenyl)-4-(1,1-dioxidoisothiazolidin-2-yl)-2-(6-azaspiro[2.5]octan-6-yl)benzamide]
The IC50 of the first is 1.5-fold lower: 0.03 µM for the first, 0.045 µM for the second. The first is the more potent here.

Work on C[C@@H]1CN(c2cccc(NC(=O)c3ccc(NS(=O)(=O)CCO)cc3N3CCC4(CC3)CC4)c2)CCO1 [Example 103-1, (R)-4-((2-hydroxyethyl)sulfonamido)-N-(3-(2-methylmorpholino)phenyl)-2-(6-azaspiro[2.5]octan-6-yl)benzamide] yielded an IC50 of 0.071 µM.
